Data published in ChEMBL document CHEMBL1150256, “Kahalalides V-Y isolated from a Hawaiian collection of the sacoglossan mollusk Elysia rufescens” (2008).
Calls of active or inactive are those of the source. The rule behind the calls is not given here.

How the values were obtained:
PC-3 = assay: Growth inhibition of human PC3 cells; assay type: functional
DU-145 = assay: Growth inhibition of human DU145 cells; assay type: functional
Mus musculus = assay: Antidepressant activity in Swiss Webster mouse at 0 to10 mg/kg, ip by forced swim test; assay type: functional, organism-based

Compound: C/C=C1\NC(=O)[C@H](Cc2ccccc2)NC(=O)[C@@H](C(C)C)NC(=O)[C@@H]([C@H](C)CC)NC(=O)[C@H](NC(=O)[C@H](NC(=O)[C@H](CCCN)NC(=O)[C@H]2CCCN2C(=O)[C@H](NC(=O)[C@@H](NC(=O)[C@@H](NC(=O)[C@H](NC(=O)CCCC(C)C)C(C)C)[C@@H](C)O)C(C)C)C(C)C)[C@H](C)CC)[C@H](C)OC(=O)[C@H](C(C)C)NC1=O [KAHALALIDE F]
- growth inhibition (GI) (PC-3): 40%
- growth inhibition (GI) (DU-145): 40%

Compound: CC(C)CCC[C@H]1CC(=O)N[C@H](Cc2c[nH]c3ccccc23)C(=O)N2CCC[C@H]2C(=O)N[C@@H](CCCNC(=N)N)C(=O)O1
- Activity (Mus musculus): inactive
